These results are taken from paper PMC7026641, “Identification of the 3-amino-3-carboxypropyl (acp) transferase enzyme responsible for acp^3U formation at position 47 in Escherichia coli tRNAs” (Nucleic Acids Research, 2019).

Assay [1] deals with T1, YfiP (TuaA, tRNA U47 acp transferase A) (Escherichia coli, UniProt Q47319).
T1 construct: gene tapT; E. coli YfiP with a C-terminal 6xHis-tag
T1 sequence (Q47319 1-232): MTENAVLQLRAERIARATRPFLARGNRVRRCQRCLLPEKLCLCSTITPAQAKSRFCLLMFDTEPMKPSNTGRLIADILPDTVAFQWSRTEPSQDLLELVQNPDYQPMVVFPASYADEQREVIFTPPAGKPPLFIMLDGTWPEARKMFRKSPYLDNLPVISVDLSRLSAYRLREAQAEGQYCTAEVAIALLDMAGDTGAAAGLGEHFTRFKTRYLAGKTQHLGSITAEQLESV
The experiment in a line: ITC, […]°C, one-site binding model.

The target in assay [2] is T1, YfiP (TuaA, tRNA U47 acp transferase A). The experiment in a line: ITC, […]°C, one-site binding model; also in vitro acp transfer to tRNA. A general note: ITC needs no label: the signal is the heat of the interaction.

For the molecule `Nc1ncnc2c1ncn2[C@@H]1O[C@H](CSCC[C@H](N)C(=O)O)[C@@H](O)[C@H]1O` [SAH, S-adenosylhomocysteine], the Kd in assay [1] amounted to 84 µM.
With `C[S+](CC[C@H](N)C(=O)O)C[C@H]1O[C@@H](n2cnc3c(N)ncnc32)[C@H](O)[C@@H]1O` (stereo partly drawn) [SAM, S-adenosyl methionine], the dissociation constant Kd in assay [2] came out at 32 µM.
In assay [1], `CSC[C@H]1O[C@@H](n2cnc3c(N)ncnc32)[C@H](O)[C@@H]1O` [5-MTA, 5′-methyl 5′-deoxythioadenosine] came in with a Kd of 131 µM.

As a reminder, the Kd is the concentration at which binding is half-saturated.
